Experimental data reported in patent US20090061027A1, “Composition For The Prevention and Treatment Of Common Cold Diseases” (priority 2006, published 2009).

Tested on: A549 cells
Test: Examination of the apoptotic caspase activation (Western Blot, PARP cleaving)
Type: cell-based
Conditions: 48 hours, extract 25 and 50 μg/ml, staurosporine as positive control stimulus
Procedure: To examine the apoptotic caspase activation, A549 cells were treated with 25 and 50 μg/ml of the extract for 48 hours. The cells were then lysed, and the cellular proteins were separated using gel electrophoresis and examined in the Western Blot with an antiPARP antibody (Poly(ADP-Ribose) polymerase, caspase substrate) for the apoptotic cleaving of this protein by caspases. The apoptosis-inductor staurosporine served as the positive control stimulus. The experiments were conducted in two parallel batches.

CN[C@@H]1C[C@H]2O[C@@](C)([C@@H]1OC)n1c3ccccc3c3c4c(c5c6ccccc6n2c5c31)C(=O)NC4 [staurosporine]
caspase activation / apoptotic cleaving of PARP: efficient cleaving of the caspase substrate
